US6486173B2, “5-HT7 receptor antagonists” (Bristol-Myers Squibb Pharma Company, priority 1998, dated 2002)
Like-named read-outs stand apart in the source and are kept apart here.

How the values were obtained:
5-HT7 receptor = 5-HT7 receptor (Homo sapiens, UniProt P34969); settings: cited from earlier work
[1] = background statement, profile consistent across species

Chain of 5-HT7 receptor (P34969 whole entry): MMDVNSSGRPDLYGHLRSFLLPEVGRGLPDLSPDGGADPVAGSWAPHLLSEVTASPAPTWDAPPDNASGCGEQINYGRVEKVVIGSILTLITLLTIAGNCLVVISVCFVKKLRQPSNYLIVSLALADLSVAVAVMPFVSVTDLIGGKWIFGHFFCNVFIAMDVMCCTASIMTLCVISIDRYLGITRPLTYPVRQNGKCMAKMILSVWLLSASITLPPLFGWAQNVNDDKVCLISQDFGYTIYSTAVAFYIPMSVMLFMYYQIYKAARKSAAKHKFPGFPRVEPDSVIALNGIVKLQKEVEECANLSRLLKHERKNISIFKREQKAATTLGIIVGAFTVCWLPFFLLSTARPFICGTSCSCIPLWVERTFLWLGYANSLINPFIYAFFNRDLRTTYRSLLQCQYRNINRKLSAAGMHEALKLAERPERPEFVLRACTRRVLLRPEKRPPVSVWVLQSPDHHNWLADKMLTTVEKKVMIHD

**Q.** With `CC(C)NCC(O)COc1cccc2[nH]ccc12` (stereo not drawn) [pindolol] as the molecule, how does the 5-HT7 receptor affinity (5-HT7 receptor) read?
**A.** low affinity

**Q.** With `Cc1ccc(C2(CCCN3Cc4ccccc4C3)OCCO2)cc1.O=C(O)/C=C\C(=O)O` as the molecule, how does the melting point read?
**A.** 159 to 161 °C (dec.)

**Q.** For `COc1ccc2[nH]cc(CCN)c2c1` [Example 5-MeOT, 5-MeOT], which 5-HT7 receptor affinity (5-HT7 receptor) is on record?
**A.** high 5-HT7 receptor affinity

**Q.** For `Fc1ccc(OCCCN2Cc3ccccc3C2)cc1.O=C(O)/C=C\C(=O)O`, which melting point is on record?
**A.** 115 to 117 °C

**Q.** With `O=C(CCCN1CCc2ccccc2C1)c1ccncc1.O=C(O)/C=C\C(=O)O` as the molecule, how does the melting point read?
**A.** 108 to 109 °C

**Q.** With `Fc1ccc(C2(CCCN3Cc4ccccc4C3)OCCO2)cc1.O=C(O)/C=C\C(=O)O` as the molecule, how does the melting point read?
**A.** 141 to 142 °C

**Q.** For `Fc1ccc(C2=NOC(CN3CCc4ccccc4C3)C2)cc1.O=C(O)/C=C\C(=O)O` (racemic), which melting point is on record?
**A.** 153 to 155 °C

**Q.** For `CCCN(CCC)C1CCc2cccc(O)c2C1` (stereo not drawn) [Example 8-OHDPAT, 8-OHDPAT], which 5-HT7 receptor affinity (5-HT7 receptor) is on record?
**A.** moderate affinity

**Q.** Which 5-HT7 receptor affinity (5-HT7 receptor; [1]) does the source give for `CNS(=O)(=O)Cc1ccc2[nH]cc(CCN(C)C)c2c1` [sumatriptan] here?
**A.** low affinity

**Q.** For `O=C(O)/C=C\C(=O)O.OC(CCCN1Cc2ccccc2C1)c1ccc(F)cc1` (stereo not drawn), which melting point is on record?
**A.** 113 to 114 °C

**Q.** For `O=C(CCCN1Cc2cccc3cccc(c23)C1)c1ccc(F)cc1.O=C(O)/C=C\C(=O)O`, which melting point is on record?
**A.** 151 to 155 °C

**Q.** Which melting point does the source give for `O=C(CCCN1CC[C@@H]2CCCC[C@H]2C1)c1ccc(F)cc1.O=C(O)/C=C\C(=O)O` (racemic) here?
**A.** 157 to 158 °C

**Q.** For `Cl.O=S(=O)(CCCN1CCc2ccccc2C1)c1ccc(F)cc1`, which melting point is on record?
**A.** 212 to 215 °C

**Q.** Which 5-HT7 receptor affinity (5-HT7 receptor; [1]) does the source give for 5-HT [Example 5-HT] here?
**A.** high 5-HT7 receptor affinity

**Q.** With `O=C1CC2(CCCC2)CC(=O)N1CCCCN1CCN(c2ncccn2)CC1` [buspirone] as the molecule, how does the 5-HT7 receptor affinity (5-HT7 receptor; [1]) read?
**A.** low affinity

**Q.** With `Cc1nc2sccn2c(=O)c1CCN1CCC(=C(c2ccc(F)cc2)c2ccc(F)cc2)CC1` [ritanserin] as the molecule, how does the 5-HT7 receptor affinity (5-HT7 receptor; [1]) read?
**A.** moderate affinity

**Q.** With `Cl.Fc1ccc(SCCCN2CCc3ccccc3C2)cc1` as the molecule, how does the melting point read?
**A.** 171 to 173 °C

**Q.** For `O=C(O)/C=C\C(=O)O.O=c1[nH]c2ccccc2n1CCCN1CCc2ccccc2C1`, which melting point is on record?
**A.** 153 to 154 °C

**Q.** Which melting point does the source give for `Cl.O=S(=O)(c1ccc(F)cc1)N1CCC(N2CCc3ccccc3C2)CC1` here?
**A.** > 240 °C

**Q.** With `Cl.Fc1ccc(SCCCN2Cc3ccccc3C2)cc1` as the molecule, how does the melting point read?
**A.** 125 to 126 °C

**Q.** With `Fc1ccc(C2(CCCN3CCc4ccccc4C3)OCCO2)cc1.O=C(O)/C=C\C(=O)O` as the molecule, how does the melting point read?
**A.** 160 to 162 °C

**Q.** For `COc1cc2c(cc1OC)CN(CCCC(=O)c1ccc(F)cc1)CC2.O=C(O)/C=C\C(=O)O`, which melting point is on record?
**A.** 144 to 146 °C

**Q.** With `O=C(O)/C=C\C(=O)O.c1ccc(-c2cc(CN3CCc4ccccc4C3)on2)cc1` as the molecule, how does the melting point read?
**A.** 190 to 192 °C

**Q.** With `O=C(O)/C=C\C(=O)O.O=S(=O)(CCCN1Cc2ccccc2C1)c1ccc(F)cc1` as the molecule, how does the melting point read?
**A.** 151 to 152 °C

**Q.** For `O=C(CCCN1CCc2ccccc2C1)c1ccc(F)cc1.O=C(O)/C=C\C(=O)O`, which melting point is on record?
**A.** 129 to 130 °C

**Q.** For `O=C(CCCN1Cc2cc3ccccc3cc2C1)c1ccc(F)cc1.O=C(O)/C=C\C(=O)O`, which melting point is on record?
**A.** 157 to 158 °C

**Q.** Which melting point does the source give for `O=C(CCCN1CCc2ccccc2C1)c1cccs1.O=C(O)/C=C\C(=O)O` here?
**A.** 154 to 155 °C
